According to ChEMBL document CHEMBL3046000, “Design and synthesis of 1-(benzothiazol-5-yl)-1H-1,2,4-triazol-5-ones as protoporphyrinogen oxidase inhibitors” (Bioorg Med Chem, 2013):

Assays:
Chenopodium album [1] = experiment: Post-emergence herbicidal activity against Chenopodium album seedlings assessed as plant growth inhibition at 37.5 g ai/ha measured 15 days after compound treatment under greenhouse conditions; format: functional; conditions: 360 h, read-out: GI
Echinochloa crus-galli [2] = experiment: Post emergence herbicidal activity against Echinochloa crus-galli (barnyard grass) seedlings assessed as plant growth inhibition at 75 g ai/ha measured 15 days after compound treatment under greenhouse conditions; format: functional; conditions: 360 h, read-out: GI
Digitaria sanguinalis [3] = experiment: Post-emergence herbicidal activity against Digitaria sanguinalis (hairy crabgrass) seedlings assessed as plant growth inhibition at 37.5 g ai/ha measured 15 days after compound treatment under greenhouse conditions; format: functional; conditions: 360 h, read-out: GI
Brassica juncea [4] = experiment: Post-emergence herbicidal activity against Brassica juncea seedlings assessed as plant growth inhibition at 150 g ai/ha measured 15 days after compound treatment under greenhouse conditions; format: functional; conditions: 360 h, read-out: GI
Setaria faberi [5] = experiment: Post-emergence herbicidal activity against Setaria faberi (Giant Foxtail) seedlings assessed as plant growth inhibition at 150 g ai/ha measured 15 days after compound treatment under greenhouse conditions; format: functional; conditions: 360 h, read-out: GI
Setaria faberi [6] = experiment: Post-emergence herbicidal activity against Setaria faberi (Giant Foxtail) seedlings assessed as plant growth inhibition at 75 g ai/ha measured 15 days after compound treatment under greenhouse conditions; format: functional; conditions: 360 h, read-out: GI
Brassica juncea [7] = experiment: Post-emergence herbicidal activity against Brassica juncea seedlings assessed as plant growth inhibition at 37.5 g ai/ha measured 15 days after compound treatment under greenhouse conditions; format: functional; conditions: 360 h, read-out: GI
Digitaria sanguinalis [8] = experiment: Post-emergence herbicidal activity against Digitaria sanguinalis (hairy crabgrass) seedlings assessed as plant growth inhibition at 150 g ai/ha measured 15 days after compound treatment under greenhouse conditions; format: functional; conditions: 360 h, read-out: GI
Digitaria sanguinalis [9] = experiment: Post-emergence herbicidal activity against Digitaria sanguinalis (hairy crabgrass) seedlings assessed as plant growth inhibition at 75 g ai/ha measured 15 days after compound treatment under greenhouse conditions; format: functional; conditions: 360 h, read-out: GI
Echinochloa crus-galli [10] = experiment: Post emergence herbicidal activity against Echinochloa crus-galli (barnyard grass) seedlings assessed as plant growth inhibition at 150 g ai/ha measured 15 days after compound treatment under greenhouse conditions; format: functional; conditions: 360 h, read-out: GI
Amaranthus retroflexus [11] = experiment: Post emergence herbicidal activity against Amaranthus retroflexus seedlings assessed as plant growth inhibition at 150 g ai/ha measured 15 days after compound treatment under greenhouse conditions; format: functional; conditions: 360 h, read-out: GI
Brassica juncea [12] = experiment: Post-emergence herbicidal activity against Brassica juncea seedlings assessed as plant growth inhibition at 75 g ai/ha measured 15 days after compound treatment under greenhouse conditions; format: functional; conditions: 360 h, read-out: GI
Chenopodium album [13] = experiment: Post-emergence herbicidal activity against Chenopodium album seedlings assessed as plant growth inhibition at 150 g ai/ha measured 15 days after compound treatment under greenhouse conditions; format: functional; conditions: 360 h, read-out: GI
Chenopodium album [14] = experiment: Post-emergence herbicidal activity against Chenopodium album seedlings assessed as plant growth inhibition at 75 g ai/ha measured 15 days after compound treatment under greenhouse conditions; format: functional; conditions: 360 h, read-out: GI
[15] = target: T1, Protoporphyrinogen oxidase, chloroplastic (Nicotiana tabacum, UniProt O24163); experiment: Inhibition of Nicotiana tabacum (tobacco) recombinant PPO assessed as protoporphyrin IX formation at room temperature by fluorimetric assay
T1 sequence (O24163 whole entry): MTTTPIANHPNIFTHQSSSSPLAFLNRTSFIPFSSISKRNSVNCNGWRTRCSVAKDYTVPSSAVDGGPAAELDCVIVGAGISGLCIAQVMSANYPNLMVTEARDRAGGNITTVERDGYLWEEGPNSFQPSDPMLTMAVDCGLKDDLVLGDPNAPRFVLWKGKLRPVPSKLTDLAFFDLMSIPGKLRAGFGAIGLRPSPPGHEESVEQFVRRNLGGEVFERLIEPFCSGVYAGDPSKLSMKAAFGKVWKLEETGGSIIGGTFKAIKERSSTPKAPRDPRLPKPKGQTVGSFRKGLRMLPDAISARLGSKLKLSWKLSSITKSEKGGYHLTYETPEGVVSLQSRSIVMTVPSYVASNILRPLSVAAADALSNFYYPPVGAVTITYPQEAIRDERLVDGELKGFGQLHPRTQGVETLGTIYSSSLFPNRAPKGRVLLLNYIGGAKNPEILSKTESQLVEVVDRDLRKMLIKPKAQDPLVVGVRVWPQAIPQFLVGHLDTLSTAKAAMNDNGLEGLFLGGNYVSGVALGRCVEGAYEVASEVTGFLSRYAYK

Echinochloa crus-galli [16] = experiment: Post emergence herbicidal activity against Echinochloa crus-galli (barnyard grass) seedlings assessed as plant growth inhibition at 37.5 g ai/ha measured 15 days after compound treatment under greenhouse conditions; format: functional; conditions: 360 h, read-out: GI
Amaranthus retroflexus [17] = experiment: Post emergence herbicidal activity against Amaranthus retroflexus seedlings assessed as plant growth inhibition at 75 g ai/ha measured 15 days after compound treatment under greenhouse conditions; format: functional; conditions: 360 h, read-out: GI
Amaranthus retroflexus [18] = experiment: Post emergence herbicidal activity against Amaranthus retroflexus seedlings assessed as plant growth inhibition at 37.5 g ai/ha measured 15 days after compound treatment under greenhouse conditions; format: functional; conditions: 360 h, read-out: GI
Setaria faberi [19] = experiment: Post-emergence herbicidal activity against Setaria faberi (Giant Foxtail) seedlings assessed as plant growth inhibition at 37.5 g ai/ha measured 15 days after compound treatment under greenhouse conditions; format: functional; conditions: 360 h, read-out: GI

| Ki [15] [nM] | SMILES | inhibition of growth at 37.5 g/ha (Chenopodium album [1]) [%] | inhibition of growth at 75 g/ha (Echinochloa crus-galli [2]) [%] | inhibition of growth at 37.5 g/ha (Digitaria sanguinalis [3]) [%] | inhibition of growth at 150 g/ha (Brassica juncea [4]) [%] | inhibition of growth at 150 g/ha (Setaria faberi [5]) [%] | inhibition of growth at 75 g/ha (Setaria faberi [6]) [%] | inhibition of growth at 37.5 g/ha (Brassica juncea [7]) [%] | inhibition of growth at 150 g/ha (Digitaria sanguinalis [8]) [%] | inhibition of growth at 75 g/ha (Digitaria sanguinalis [9]) [%] | inhibition of growth at 150 g/ha (Echinochloa crus-galli [10]) [%] | inhibition of growth at 150 g/ha (Amaranthus retroflexus [11]) [%] | inhibition of growth at 75 g/ha (Brassica juncea [12]) [%] | inhibition of growth at 150 g/ha (Chenopodium album [13]) [%] | inhibition of growth at 75 g/ha (Chenopodium album [14]) [%] | inhibition of growth at 37.5 g/ha (Echinochloa crus-galli [16]) [%] | inhibition of growth at 75 g/ha (Amaranthus retroflexus [17]) [%] | inhibition of growth at 37.5 g/ha (Amaranthus retroflexus [18]) [%] | inhibition of growth at 37.5 g/ha (Setaria faberi [19]) [%] |
| --- | --- | --- | --- | --- | --- | --- | --- | --- | --- | --- | --- | --- | --- | --- | --- | --- | --- | --- | --- |
| 13900 | CSc1nc2cc(-n3nc(C)n(C(F)F)c3=O)c(Cl)cc2s1 |  |  |  | 60 | < 50 |  |  | 50 |  | < 50 | 50 |  | 50 |  |  |  |  |  |
| 3390 | CCOC(=O)C(C)Sc1nc2cc(-n3nc(C)n(C(F)F)c3=O)c(Cl)cc2s1 (stereo not given) |  |  |  | ≥ 90 | 80 |  |  | 80 |  | 80 | ≥ 90 |  | 60 |  |  |  |  |  |
| 1370 | CCOC(=O)CSc1nc2cc(-n3nc(C)n(C(F)F)c3=O)c(Cl)cc2s1 |  |  |  | ≥ 90 | 80 |  |  | ≥ 90 |  | ≥ 90 | 80 |  | < 50 |  |  |  |  |  |
| 510 | CSc1nc2cc(-n3nc(C)n(C(F)F)c3=O)c(F)cc2s1 |  |  |  | < 50 | 50 |  |  | < 50 |  | 50 | 80 |  | < 50 |  |  |  |  |  |
| 300 | CCCSc1nc2cc(-n3nc(C)n(C(F)F)c3=O)c(F)cc2s1 |  |  |  | 60 | 60 |  |  | 80 |  | 60 | 60 |  | < 50 |  |  |  |  |  |

Continued, compound first:

| SMILES | Ki [15] [nM] | inhibition of growth at 37.5 g/ha (Chenopodium album [1]) [%] | inhibition of growth at 75 g/ha (Echinochloa crus-galli [2]) [%] | inhibition of growth at 37.5 g/ha (Digitaria sanguinalis [3]) [%] | inhibition of growth at 150 g/ha (Brassica juncea [4]) [%] | inhibition of growth at 150 g/ha (Setaria faberi [5]) [%] | inhibition of growth at 75 g/ha (Setaria faberi [6]) [%] | inhibition of growth at 37.5 g/ha (Brassica juncea [7]) [%] | inhibition of growth at 150 g/ha (Digitaria sanguinalis [8]) [%] | inhibition of growth at 75 g/ha (Digitaria sanguinalis [9]) [%] | inhibition of growth at 150 g/ha (Echinochloa crus-galli [10]) [%] | inhibition of growth at 150 g/ha (Amaranthus retroflexus [11]) [%] | inhibition of growth at 75 g/ha (Brassica juncea [12]) [%] | inhibition of growth at 150 g/ha (Chenopodium album [13]) [%] | inhibition of growth at 75 g/ha (Chenopodium album [14]) [%] | inhibition of growth at 37.5 g/ha (Echinochloa crus-galli [16]) [%] | inhibition of growth at 75 g/ha (Amaranthus retroflexus [17]) [%] | inhibition of growth at 37.5 g/ha (Amaranthus retroflexus [18]) [%] | inhibition of growth at 37.5 g/ha (Setaria faberi [19]) [%] |
| --- | --- | --- | --- | --- | --- | --- | --- | --- | --- | --- | --- | --- | --- | --- | --- | --- | --- | --- | --- |
| CCOC(=O)CSc1nc2cc(-n3nc(C)n(C(F)F)c3=O)c(Br)cc2s1 | 8000 | ≥ 90 | 60 | 50 | ≥ 90 | 80 | 60 | 80 | 80 | 60 | 50 | ≥ 90 | 80 | ≥ 90 | ≥ 90 | 50 | ≥ 90 | ≥ 90 | 50 |
| C=CCSc1nc2cc(-n3nc(C)n(C(F)F)c3=O)c(Br)cc2s1 | 12800 |  |  |  | 50 | 60 |  |  | < 50 |  | < 50 | 60 |  | 50 |  |  |  |  |  |
| Cc1nn(-c2cc3nc(SCC(=O)O)sc3cc2F)c(=O)n1C(F)F | 1520 | 80 | 50 | < 50 | ≥ 90 | ≥ 90 | 50 | < 50 | ≥ 90 | < 50 | ≥ 90 | ≥ 90 | 80 | ≥ 90 | 80 | 50 | ≥ 90 | ≥ 90 | 50 |
| CCCSc1nc2cc(-n3nc(C)n(C(F)F)c3=O)c(Cl)cc2s1 | 2010 |  |  |  | ≥ 90 | < 50 |  |  | < 50 |  | < 50 | 60 |  | 50 |  |  |  |  |  |
| C=CCSc1nc2cc(-n3nc(C)n(C(F)F)c3=O)c(Cl)cc2s1 | 3130 |  |  |  | 60 | 60 |  |  | < 50 |  | 60 | 60 |  | < 50 |  |  |  |  |  |
| CCCCSc1nc2cc(-n3nc(C)n(C(F)F)c3=O)c(Cl)cc2s1 | 2970 |  |  |  | 50 | < 50 |  |  | < 50 |  | < 50 | < 50 |  | < 50 |  |  |  |  |  |
| COC(=O)Sc1nc2cc(-n3nc(C)n(C(F)F)c3=O)c(Cl)cc2s1 |  |  |  |  | < 50 | < 50 |  |  | < 50 |  | < 50 | < 50 |  | < 50 |  |  |  |  |  |
| CCOC(=O)Sc1nc2cc(-n3nc(C)n(C(F)F)c3=O)c(Cl)cc2s1 |  |  |  |  | < 50 | < 50 |  |  | < 50 |  | < 50 | < 50 |  | < 50 |  |  |  |  |  |
| C=CCSc1nc2cc(-n3nc(C)n(C(F)F)c3=O)c(F)cc2s1 | 200 |  |  |  | < 50 | 60 |  |  | 60 |  | 80 | 50 |  | < 50 |  |  |  |  |  |
| CCCCSc1nc2cc(-n3nc(C)n(C(F)F)c3=O)c(F)cc2s1 | 210 |  |  |  | 60 | 80 |  |  | 80 |  | 60 | 60 |  | < 50 |  |  |  |  |  |
| CCOC(=O)CSc1nc2cc(-n3nc(C)n(C(F)F)c3=O)c(F)cc2s1 | 60 | 80 | 50 | < 50 | ≥ 90 | ≥ 90 | < 50 | 80 | ≥ 90 | 50 | ≥ 90 | 60 | 80 | 80 | 80 | < 50 | 80 | 80 | < 50 |
| CCOC(=O)Sc1nc2cc(-n3nc(C)n(C(F)F)c3=O)c(F)cc2s1 | 580 | < 50 | < 50 | < 50 | ≥ 90 | < 50 | < 50 | < 50 | 50 | < 50 | 50 | ≥ 90 | < 50 | ≥ 90 | 60 | < 50 | < 50 | < 50 | < 50 |
